Changes are numbered by the printed parent chain.
How the values were obtained:
[1] = target: T1, Type-2 angiotensin II receptor (Rattus norvegicus, UniProt P35351); test: Inhibitory activity at Angiotensin II type 2 receptor.
T1 sequence (P35351 whole entry): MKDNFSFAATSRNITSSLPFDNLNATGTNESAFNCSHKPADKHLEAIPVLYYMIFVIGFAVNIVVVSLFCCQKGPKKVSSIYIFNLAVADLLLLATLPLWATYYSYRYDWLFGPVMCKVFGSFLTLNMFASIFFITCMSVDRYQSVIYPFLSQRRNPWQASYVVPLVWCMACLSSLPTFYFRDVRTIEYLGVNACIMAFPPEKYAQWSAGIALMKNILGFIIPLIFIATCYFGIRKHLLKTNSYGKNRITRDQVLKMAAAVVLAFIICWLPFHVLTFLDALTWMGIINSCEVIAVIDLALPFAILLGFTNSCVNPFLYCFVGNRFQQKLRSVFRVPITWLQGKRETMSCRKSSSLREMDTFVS

[2] = target: T2, Angiotensin II receptor (AT-1) type-1 (Rattus norvegicus, UniProt P29089+P25095); test: Inhibitory activity against Angiotensin II receptor, type 1; assay type: protein assay
T2 sequence (P29089 whole entry): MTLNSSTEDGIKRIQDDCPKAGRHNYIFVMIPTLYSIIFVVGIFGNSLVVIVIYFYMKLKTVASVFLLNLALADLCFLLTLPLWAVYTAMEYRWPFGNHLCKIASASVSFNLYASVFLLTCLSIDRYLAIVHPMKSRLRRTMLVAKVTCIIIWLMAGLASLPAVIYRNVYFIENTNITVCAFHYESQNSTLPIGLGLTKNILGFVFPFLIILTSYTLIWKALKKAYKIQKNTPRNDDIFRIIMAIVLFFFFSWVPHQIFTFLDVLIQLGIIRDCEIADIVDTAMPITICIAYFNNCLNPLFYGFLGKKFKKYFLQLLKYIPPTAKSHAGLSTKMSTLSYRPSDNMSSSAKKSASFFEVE
T2 sequence (P25095 whole entry): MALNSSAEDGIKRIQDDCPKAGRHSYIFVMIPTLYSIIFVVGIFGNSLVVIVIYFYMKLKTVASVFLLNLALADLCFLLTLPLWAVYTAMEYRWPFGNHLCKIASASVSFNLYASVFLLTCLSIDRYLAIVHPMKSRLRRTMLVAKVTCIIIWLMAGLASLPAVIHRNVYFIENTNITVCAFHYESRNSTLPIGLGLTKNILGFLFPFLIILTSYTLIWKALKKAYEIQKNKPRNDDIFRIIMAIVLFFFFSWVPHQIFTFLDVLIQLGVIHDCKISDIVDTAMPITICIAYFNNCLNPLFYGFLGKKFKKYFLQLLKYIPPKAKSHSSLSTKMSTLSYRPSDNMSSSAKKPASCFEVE

Rattus norvegicus [3] = species on record: Rattus norvegicus; test: Oral effective dose required for lowering blood pressure in renal hypertensive rats (RHR); assay type: functional
[4] = Oral bioavailability in dog; assay type: ADME, organism-based, Canis lupus familiaris; conditions: in vivo
[5] = target: T2, Angiotensin II receptor (AT-1) type-1; test: Inhibitory activity against Angiotensin II receptor type 1 in rat adrenal membrane; assay type: cell membranes
Rattus norvegicus [6] = test: Intravenous effective dose required for lowering blood pressure in renal hypertensive rats (RHR); assay type: functional
[7] = Oral bioavailability in rat; assay type: ADME, organism-based; conditions: in vivo
[8] = target: T2, Angiotensin II receptor (AT-1) type-1; test: Inhibitory activity against Angiotensin II receptor, type 1 in rat aortic membranes; assay type: cell membranes
[9] = target: T3, Type-1 angiotensin II receptor (Oryctolagus cuniculus, UniProt P34976); test: (§1) Inhibition of Angiotensin II receptor, type 1
T3 sequence (P34976 whole entry): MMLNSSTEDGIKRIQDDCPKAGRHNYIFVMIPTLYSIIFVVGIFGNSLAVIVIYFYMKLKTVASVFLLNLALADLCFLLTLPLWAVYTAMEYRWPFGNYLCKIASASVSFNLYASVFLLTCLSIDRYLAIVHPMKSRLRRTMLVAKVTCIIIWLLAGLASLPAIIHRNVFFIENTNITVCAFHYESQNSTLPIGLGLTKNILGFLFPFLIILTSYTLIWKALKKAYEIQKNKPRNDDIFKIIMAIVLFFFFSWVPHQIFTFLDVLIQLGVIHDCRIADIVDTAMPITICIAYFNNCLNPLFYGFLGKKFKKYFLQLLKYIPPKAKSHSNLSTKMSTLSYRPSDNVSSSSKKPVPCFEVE

Oryctolagus cuniculus = species on record: Oryctolagus cuniculus; test: Compound was tested for its antagonistic activity against angiotensin II-induced contractions in rabbit aorta; assay type: functional
[10] = target: T4, Type-2 angiotensin II receptor (Homo sapiens, UniProt P50052); test: Inhibition of Angiotensin II receptor, type 2
T4 sequence (P50052 whole entry): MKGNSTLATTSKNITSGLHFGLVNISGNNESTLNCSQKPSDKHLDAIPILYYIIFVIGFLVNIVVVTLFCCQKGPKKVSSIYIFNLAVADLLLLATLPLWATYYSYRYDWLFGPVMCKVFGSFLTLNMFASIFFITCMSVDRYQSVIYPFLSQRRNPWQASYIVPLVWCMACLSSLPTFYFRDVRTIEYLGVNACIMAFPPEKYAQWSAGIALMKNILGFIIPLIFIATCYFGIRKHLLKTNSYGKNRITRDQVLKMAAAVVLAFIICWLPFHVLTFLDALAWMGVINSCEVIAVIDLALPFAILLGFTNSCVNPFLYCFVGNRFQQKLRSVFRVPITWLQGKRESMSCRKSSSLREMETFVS

[11] = target: T5, Type-1 angiotensin II receptor (Homo sapiens, UniProt P30556); test: as §1
T5 sequence (P30556 whole entry): T3 sequence (P34976 whole entry) with M2I, A49V, V254I, V270I, H272R, K311R, S349T, V353A

[12] = target: T2, Angiotensin II receptor (AT-1) type-1; test: In vitro antagonistic potency against Angiotensin II receptor, type 1 in rat liver; assay type: functional, tissue-based

CCCC(=O)N(CCC(=O)c1c(CC)nc(CCC)n1Cc1ccc(-c2ccccc2S(=O)(=O)NC(=O)OCCC(C)C)cc1F)c1cccnc1
IC50 [1]: 0.28 nM
IC50 ([2]; read-out: IC50): 0.26 nM
ED30 (Rattus norvegicus [3]): 0.27 mg/kg

CCCc1nc(CC)c(C(=O)O)n1Cc1ccc(-c2ccccc2-c2nn[nH]n2)cc1
bioavailability [4]: 13%
IC50 [5]: 6 nM
ED30 (Rattus norvegicus [6]): 0.005 mg/kg
bioavailability [7]: 8%
ED30 (Rattus norvegicus [3]): 0.03 mg/kg

Cc1cc(Cn2cnc3c2C[C@@H](C(=O)O)N(C(=O)C(c2ccccc2)c2ccccc2)C3)ccc1N(C)C.O=C(O)C(F)(F)F.O=C(O)C(F)(F)F
IC50 [2]: > 100000 nM

CCCCc1nc2cccnc2n1Cc1ccc(-c2ccccc2-c2nnn[nH]2)cc1
IC50 [8]: 0.6 nM

CCCc1ccc(-c2nnn[nH]2)c(-c2ccc(Cn3c(CC)nc4c(C)cc(C)nc43)cc2)c1
IC50 [1]: 2 nM
IC50 [9]: 0.3 nM

CCc1nc2c(C)cc(C)nc2n1Cc1ccc2c(ccn2C(=O)c2cccc(-c3nn[nH]n3)c2)c1
IC50 [1]: 130 nM
IC50 [9]: 5 nM

CCCc1nc2c(C)c(NC(=O)c3ccccc3)cnc2n1Cc1ccc(-c2ccccc2S(=O)(=O)NC(=O)OCCC(C)C)cc1
IC50 [1]: 0.29 nM
IC50 ([2]; read-out: IC50): 0.24 nM
bioavailability [4]: 34%
bioavailability [7]: 45%

CCc1nc2c(C)cc(CO)nc2n1Cc1ccc2oc(-c3ccccc3NS(=O)(=O)C(F)(F)F)c(Br)c2c1
pKB (Oryctolagus cuniculus): 8.6

CCCCc1nc(Cl)c(CC(=O)O)n1Cc1ccc(C(=O)O)cc1
ED30 (Rattus norvegicus [6]): 10 mg/kg

CCCc1ccc2c(c1)-c1ccc(cc1)Cn1c(CCC)nc3ccc(cc3c1=O)NCCCCCCC(=O)NS2(=O)=O
IC50 [10]: 24 nM
IC50 [11]: 4 nM

CCCCc1nc(Cl)c(CO)n1Cc1ccc(-c2ccccc2C(=O)O)cc1
ED30 (Rattus norvegicus [3]): 3.7 mg/kg

CCCCOC(=O)NS(=O)(=O)c1sc(CC(C)C)cc1-c1ccc(Cn2c(CC)nc3c(C)cc(C)nc32)cc1
IC50 [11]: 1.1 nM

CCCCOC(=O)NS(=O)(=O)c1ccc(Cc2cccc(OC)c2)cc1-c1ccc(Cn2c(CC)nc3c(C)cc(C)nc32)cc1
IC50 [11]: 1.4 nM

O=C(O)[C@@H]1Cc2cc(-c3ccccc3)ccc2CN1C(=O)C(c1ccccc1)c1ccccc1
IC50 [1]: 30 nM
IC50 [2]: > 100000 nM

CCCc1nc(CC)c(C=O)n1Cc1ccc(-c2ccccc2-c2nn[nH]n2)cc1
IC50 [5]: 2.1 nM
ED30 (Rattus norvegicus [3]): 0.027 mg/kg

CCCc1nc(C(F)(F)C(F)(F)F)c(C(=O)O)n1Cc1ccc(-c2ccccc2-c2nn[nH]n2)cc1Br
IC50 ([2]; read-out: IC50): 3 nM

Cc1cc(Cn2cnc3c2C[C@@H](C(=O)O)N(C(=O)C(c2ccccc2)c2ccccc2)C3)ccc1N
IC50 [11]: > 100000 nM

CCCc1nc(CC)c(C(=O)OC)n1Cc1ccc(-c2ccccc2S(=O)(=O)NC(=O)OCCC(C)C)cc1F
IC50 [10]: 1 nM
ED50 (Rattus norvegicus [6]): 0.48 mg/kg
ED50 (Rattus norvegicus [3]): 0.67 mg/kg
IC50 [11]: 1 nM

COc1ccc(Cn2cnc3c2C[C@@H](C(=O)O)N(C(=O)C(c2ccccc2)c2ccccc2)C3)cc1C
IC50 [1]: 70 nM
IC50 [2]: > 100000 nM

O=C(O)c1c(Oc2ccc(-c3ccccc3-c3nn[nH]n3)cc2)c(C2CC2)nc2ccccc12
Ki [12]: 2.9 nM
Kb (Oryctolagus cuniculus): 0.061 nM
F [7]: 11%

CCCCC(=O)Nc1ccc(Br)c(-n2nc(CC)n(Cc3ccc(-c4ccccc4S(=O)(=O)NC(=O)OC(C)(C)C)cc3F)c2=O)c1
IC50 [10]: 0.12 nM
IC50 [11]: 0.2 nM

CCc1nc2c(C)cc(C)nc2n1Cc1ccc(-c2ccccc2S(=O)(=O)NC(=O)C(c2ccccc2)c2ccccc2)cc1
IC50 [10]: 18 nM
IC50 [11]: 0.05 nM

CCCCOC(=O)NS(=O)(=O)c1ccc(CCC)cc1-c1ccc(Cn2c(CC)nc3c(C)cc(C)nc32)cc1
IC50 [10]: 6.1 nM
IC50 [11]: 1.5 nM

CCCCc1nc2ccn(CC(=O)N(c3ccccc3)c3ccccc3)c(=O)c2n1Cc1ccc(-c2ccccc2-c2nnn[nH]2)cc1
IC50 [1]: 300 nM

CCCc1nc(C(F)(F)C(F)(F)F)c(C(=O)O)n1Cc1ccc(-c2ccccc2-c2nn[nH]n2)cc1
IC50 [5]: 3.1 nM
ED30 (Rattus norvegicus [6]): 0.02 mg/kg
ED30 (Rattus norvegicus [3]): 0.21 mg/kg

CCCc1nc(CC)c(C=O)n1Cc1ccc(-c2ccccc2S(=O)(=O)NC(=O)c2ccccc2)cc1
IC50 [9]: 1.9 nM

CCCNC(=O)NS(=O)(=O)c1ccccc1-c1ccc(Cn2c(CCC)nc(SC)c2C(=O)O)cc1
IC50 [10]: 775 nM
IC50 [11]: 0.3 nM

Cc1ccnc2c1nc(C1CC1)n2Cc1ccc(-c2ccccc2C(=O)O)cc1
IC50 [8]: 52 nM

CCc1nc2ccc(NC(=O)N(C)C(C)C)cc2c(=O)n1Cc1ccc(-c2ccccc2S(=O)(=O)NC(=O)OCCC2CC2)cc1F
bioavailability [4]: 17%
bioavailability [7]: 23%

CCCc1nc(CC)c(C(=O)OCc2ccccc2C(=O)c2ccccc2)n1Cc1ccc(-c2ccccc2S(=O)(=O)NC(=O)OCCC(C)C)cc1F
IC50 [10]: 0.69 nM
ED30 (Rattus norvegicus [6]): 0.05 mg/kg
ED30 (Rattus norvegicus [3]): 0.9 mg/kg
IC50 [11]: 570 nM

CCCCc1nc(Cl)c(C(=O)O)n1Cc1ccc(-c2ccccc2-c2nn[nH]n2)cc1 [CARBOXYLIC ACID METABOLITE]
ED30 (Rattus norvegicus [6]): 0.04 mg/kg
bioavailability [7]: 12%
ED30 (Rattus norvegicus [3]): 0.66 mg/kg

CCCCc1nc2ccc(C(C)(C)OC)cc2c(=O)n1Cc1ccc(-c2ccccc2-c2nn[nH]n2)cc1 [CL-329167]
IC50 ([2]; read-out: IC50): 6 nM

CCCCc1nn(-c2ccccc2C(F)(F)F)c(=O)n1Cc1ccc(-c2ccccc2S(=O)(=O)NC(=O)c2ccccc2)cc1 [L-159913]
IC50 [1]: 450 nM

COc1ccc2c(c1OCc1ccccc1)C[C@@H](C(=O)O)N(C(=O)C(c1ccccc1)c1ccccc1)C2 [OLODANRIGAN]
IC50 [2]: > 100000 nM

CCCc1nc2c(n1Cc1ccc(-c3ccccc3-c3nnn[nH]3)cc1)C(=O)CCCC2 [PRATOSARTAN]
IC50 [8]: 0.8 nM

Cc1nc(C)c2c(n1)N(Cc1ccc(-c3ccccc3-c3nnn[nH]3)cc1)C(=O)CC2 [TASOSARTAN]
ED60 (Rattus norvegicus [3]): 0.58 mg/kg

— ChEMBL document CHEMBL1129469, “Nonpeptide angiotensin II receptor antagonists: the next generation in antihypertensive therapy” (J Med Chem, 1996)
